The values that follow come from patent publication US11479550B2, “EP4 antagonist” (ONO PHARMACEUTICAL CO., LTD., priority 2017, dated 2022).

The target in one assay is human EP3 receptor (Homo sapiens (Human), UniProt P43115). Nature of the assay: EP3 binding activity measurement experiment using prostanoid receptor subtype expressing cells. The following applies: human EP3 receptor expressing cell membrane fraction; [3H]-PGE2 2.5 nmol/L; Ki calculated from estimated IC50. Here is the method: To each well of a 96 well plate, 10 μL of a medium (dimethyl sulfoxide; DMSO) which had been 10-fold diluted with an assay buffer solution (10 mmol/L KH2PO4—KOH containing 1 mmol/L EDTA, 10 mmol/L Mg^2+ and 100 mmol/L NaCl, pH6.0) or a DMSO solution of a test compound (final concentration of DMSO: 0.5%), 90 μL of assay buffer solution, 50 μL of 10 nmol/L [^3H]-PGE2 (final concentration: 2.5 nmol/L), and 50 μL of human EP3 receptor expressing cell membrane fraction (manufactured by Millipore) (membrane protein mass: 2.5 μg) were placed, and subjected to incubation at room temperature. In nonspecific binding group, instead of the medium, […] of PGE2 was added (final concentration of PGE2: 10 μmol/L). After 60 minutes, a membrane fraction was subjected to suction filtration using a cell harvester, and collected onto a glass fiber (GF/B) plate (hereinafter, “filter plate”) which had been wetted with a washing buffer solution (10 mmol/L KH2PO4—KOH containing 100 mmol/L NaCl, pH6.0) in advance. Furthermore, an operation of adding about 0.2 mL of the washing buffer solution to the 96 well plate after suction filtration, and carrying out suction filtration was repeated twice, and the remaining membrane fractions were collected. The filter plate was washed with […] of washing buffer solution twice, and then dried at 50° C. to 60° C. for about 60 minutes. After an accessary back seal was attached to the bottom surface of the filter plate, about 50 μL per well of liquid scintillation cocktail was added to the filter plate, and a scaling film sheet was attached to the upper surface of the filter plate. The filter plate was shaken, and then radioactivity (cpm) of the filter plate was measured using a microplate scintillation counter. A specific binding amount of [^3H]-PGE2 to EP3 receptor was calculated by subtracting the radioactivity of the nonspecific binding group from the radioactivity other than the radioactivity of the nonspecific binding group. The inhibition rate by the test compound was calculated from the specific binding amount of [^3H]-PGE2 in a medium group and the compound of the present invention group, a Ki value (dissociation constant of the test compound) was calculated from estimated IC50 value (the concentration of the test compound required for inhibiting 50% with respect to the specific binding amount of the medium group) according to the following formula.
Note here that the Kd value of [^3H]-PGE2 was estimated from nonlinear regression analysis by calculating a specific binding amount at the time when [^3H]-PGE2 having various concentrations according to the above method was added. As a result, it was shown that the compound of the present invention had weak binding activity with respect to EP3 receptor, and was an antagonist selective to the EP4 receptor. Note here that binding activities with respect to EP1 and EP2 receptors can be measured by the same method as the measurement experiment of the EP3 binding activity measurement experiment.

A further assay deals with human EP4 receptor (Homo sapiens (Human), UniProt P35408). Nature of the assay: EP4 antagonistic activity measurement experiment using prostanoid receptor subtype expressing cells. Format: cell-based. The following applies: CHO cells expressing human EP4 receptor; inhibition of cAMP production by PGE2 10 nM; 30 minutes at room temperature. Here is the method: CHO cells expressing human EP4 receptor subtypes were prepared according to the methods of Nishigaki et al. (Non-Patent Literature 4), and used for experiment. Cells cultured to subconfluent were detached, and suspended in an assay medium (MEM containing 1 mmol/L IBMX, 1% HSA) such that a concentration became 1×10^6 cells/mL. For reaction, PGE2 was added to the cell suspension (25 μL) in a final concentration of 10 nmol/L, either alone or as a 25-μL PGE2 solution containing the test compound. After 30 minutes of reaction at room temperature, the amount of cAMP in the cells was quantified according to the method in the descriptions of the cAMP assay kit (CISBIO).
Note here that the antagonistic effect (IC50 value) of the test compound was calculated as a value that represents an inhibition rate against a reaction with PGE2 alone at 10 nM, a concentration that produces a submaximal cAMP producing effect.
(Changes in cAMP serve as a functional read-out for many G protein-coupled receptors.)

SMILES strings stand for the structures.

Chain of human EP3 receptor (P43115 whole entry): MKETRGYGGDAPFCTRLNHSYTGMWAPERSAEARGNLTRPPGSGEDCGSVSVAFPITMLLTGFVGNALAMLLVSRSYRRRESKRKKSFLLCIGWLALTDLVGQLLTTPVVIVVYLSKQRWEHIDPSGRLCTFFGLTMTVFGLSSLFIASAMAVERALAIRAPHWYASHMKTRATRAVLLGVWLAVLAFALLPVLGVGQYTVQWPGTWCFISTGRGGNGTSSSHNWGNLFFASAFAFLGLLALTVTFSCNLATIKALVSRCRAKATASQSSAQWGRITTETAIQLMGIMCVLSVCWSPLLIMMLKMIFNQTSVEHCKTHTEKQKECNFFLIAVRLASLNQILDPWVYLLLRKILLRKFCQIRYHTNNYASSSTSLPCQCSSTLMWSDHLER
Chain of human EP4 receptor (P35408 whole entry): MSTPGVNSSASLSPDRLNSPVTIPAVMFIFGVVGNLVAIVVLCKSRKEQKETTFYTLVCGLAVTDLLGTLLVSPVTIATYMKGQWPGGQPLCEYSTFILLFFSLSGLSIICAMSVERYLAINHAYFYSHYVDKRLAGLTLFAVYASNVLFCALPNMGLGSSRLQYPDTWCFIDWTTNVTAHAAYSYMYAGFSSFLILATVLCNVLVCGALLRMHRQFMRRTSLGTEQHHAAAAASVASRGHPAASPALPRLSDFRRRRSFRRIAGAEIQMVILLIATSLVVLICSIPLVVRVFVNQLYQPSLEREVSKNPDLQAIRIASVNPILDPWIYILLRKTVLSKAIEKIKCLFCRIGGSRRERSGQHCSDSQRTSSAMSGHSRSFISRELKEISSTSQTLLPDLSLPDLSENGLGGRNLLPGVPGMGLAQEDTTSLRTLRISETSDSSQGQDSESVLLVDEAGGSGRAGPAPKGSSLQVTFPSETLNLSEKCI

By Ki is commonly meant the dissociation constant of the complex between target and ligand, obtained from inhibition or displacement. As usually defined, the IC50 is the point on the concentration scale where inhibition reaches its midpoint. Low values mean greater potency, high ones weaker potency. On to `CNC(=O)c1ccc2c(c1)c(C)cn2C(C)C(=O)Nc1cc(Cn2cc(C)cn2)ccc1CCCC(=O)O` (single isomer, unassigned) [Example 8-3(2), 4-{2-({2-[3-methyl-5-(methylcarbamoyl)-1H-indol-1-yl]propanoyl}amino)-4-[(4-methyl-1H-pyrazol-1-yl)methyl]phenyl}butanoic acid], for which the Ki on human EP3 receptor is 1500 nM. Moreover, half-maximal inhibition against human EP4 receptor (IC50) required 4.8 nM.

Consider `COCCNC(=O)c1ccc2c(c1)c(C)cn2C(C)C(=O)Nc1cc(Cn2cc(C)cn2)ccc1CCCC(=O)O` (single isomer, unassigned) [Example 8-13(2), 4-{2-[(2-{5-[(2-methoxyethyl)carbamoyl]-3-methyl-1H-indol-1-yl}propanoyl)amino]-4-[(4-methyl-1H-pyrazol-1-yl)methyl]phenyl}butanoic acid], for which the Ki at human EP3 receptor was 1600 nM. The compound also had an IC50 on human EP4 receptor of 6.3 nM.

In the case of `CNC(=O)c1ccc2c(C)cn(C(C)C(=O)Nc3cc(CN4CCCS4(=O)=O)ccc3CCCC(=O)O)c2c1` (stereo not drawn) [Example 1, 4-{4-[(1,1-dioxide-1,2-thiazolidin-2-yl)methyl]-2-({2-[3-methyl-6-(methylcarbamoyl)-1H-indol-1-yl]propanoyl}amino)phenyl}butanoic acid], the inhibitory constant (Ki) on human EP3 receptor is over 10000 nM. This compound also came in with a 50% inhibitory concentration (IC50) against human EP4 receptor of 27 nM.

Turning to `COCCNC(=O)c1ccc2c(C)cn(C(C)C(=O)Nc3cc(C#N)ccc3CCCC(=O)O)c2c1` (single isomer, unassigned) [Example 11-15(2), 4-{4-cyano-2-[(2-{6-[(2-methoxyethyl)carbamoyl]-3-methyl-1H-indol-1-yl}propanoyl)amino]phenyl}butanoic acid], the inhibition constant Ki at human EP3 receptor was 2300 nM. The IC50 at human EP4 receptor is 1.9 nM.

`COCCNC(=O)c1ccc2c(C)cn(C(C)C(=O)Nc3cc(Cn4cnc(C(F)(F)F)n4)ccc3CCCC(=O)O)c2c1` (single isomer, unassigned) [Example 7-1(2), 4-(2-[(2-{6-[(2-methoxyethyl)carbamoyl]-3-methyl-1H-indol-1-yl}propanoyl)amino]-4-{[3-(trifluoromethyl)-1H-1,2,4-triazol-1-yl]methyl}phenyl)butanoic acid] yielded an IC50 against human EP4 receptor of 3.3 nM.

Compound `Cc1cnn(Cc2ccc(CCCC(=O)O)c(NC(=O)C(C)n3cc(C)c4cc(C(=O)N5CCCC5)ccc43)c2)c1` (single isomer, unassigned) [Example 8-17(2), 4-{4-[(4-methyl-1H-pyrazol-1-yl)methyl]-2-({2-[3-methyl-5-(1-pyrrolidinylcarbonyl)-1H-indol-1-yl]propanoyl}amino)phenyl}butanoic acid] returned an IC50 against human EP4 receptor of 8.6 nM.

Take `CNC(=O)c1ccc2c(C)cn(C(C)C(=O)Nc3cc(C(=O)c4cnn(C)c4)ccc3CCCC(=O)O)c2c1` (stereo not drawn) [Example 18-5(2)]: at human EP3 receptor, the Ki is 120 nM. The compound further registered an IC50 against human EP4 receptor of 3.2 nM.

Consider `CNC(=O)c1ccc2c(C)cn(C(C)C(=O)Nc3cc(Cn4cnc(C(F)(F)F)n4)ccc3CCCC(=O)O)c2c1` (single isomer, unassigned) [Example 7-3(2), 4-[2-({2-[3-methyl-6-(methylcarbamoyl)-1H-indol-1-yl]propanoyl}amino)-4-{[3-(trifluoromethyl)-1H-1,2,4-triazol-1-yl]methyl}phenyl]butanoic acid], for which, at human EP4 receptor, inhibition was half-maximal at 1.5 nM (IC50).

Compound `CNC(=O)c1ccc2c(C)cn(C(C)C(=O)Nc3cc(Cn4cc(C)c(C)n4)ccc3CCCC(=O)O)c2c1` (single isomer, unassigned) [Example 2-6(2), 4-{4-[(3,4-dimethyl-1H-pyrazol-1-yl)methyl]-2-({2-[3-methyl-6-(methylcarbamoyl)-1H-indol-1-yl]propanoyl}amino)phenyl}butanoic acid] returned an IC50 against human EP4 receptor of 1.2 nM.

The compound `CNC(=O)c1ccc2c(C)cn(C(C)C(=O)Nc3cc(C(O)c4cnn(C)c4)ccc3CCCC(=O)O)c2c1` (stereo not drawn) [Example 18-3] gave an IC50 against human EP4 receptor of 6.2 nM.

For the compound `COCCNC(=O)c1ccc2c(C)cn(C(C)C(=O)Nc3cc(Cn4cc(C)cn4)ccc3CCCC(=O)O)c2c1` (single isomer, unassigned) [Example 3-9(2), 4-{2-[(2-{6-[(2-methoxyethyl)carbamoyl]-3-methyl-1H-indol-1-yl}propanoyl)amino]-4-[(4-methyl-1H-pyrazol-1-yl)methyl]phenyl}butanoic acid], on human EP3 receptor, the Ki is 410 nM. In addition, on human EP4 receptor, it took 0.7 nM to reach half-maximal inhibition (IC50).

As for `CNC(=O)c1ccc2c(C)cn(C(C)C(=O)Nc3cc(CN4CCCCS4(=O)=O)ccc3CCCC(=O)O)c2c1` (stereo not drawn) [Example 2, 4-{4-[(1,1-dioxide-1,2-thiazinan-2-yl)methyl]-2-({2-[3-methyl-6-(methylcarbamoyl)-1H-indol-1-yl]propanoyl}amino)phenyl}butanoic acid], half-maximal inhibition at human EP4 receptor (IC50) was put at 39 nM.

On to `Cc1cn(C(C)C(=O)Nc2cc(C#N)ccc2CCCC(=O)O)c2cc(C(=O)NC3CCCC3)ccc12` (single isomer, unassigned) [Example 11-11(2), 4-[4-cyano-2-({2-[6-(cyclopentylcarbamoyl)-3-methyl-1H-indol-1-yl]propanoyl}amino)phenyl]butanoic acid], for which, at human EP4 receptor, it took 2 nM to reach half-maximal inhibition (IC50). This IC50 lies about 20-fold lower than the previous one.

`CNC(=O)c1ccc2c(C)cn(C(C)C(=O)Nc3cc(Cn4cc5c(n4)CCC5)ccc3CCCC(=O)O)c2c1` (stereo not drawn) [Example 2-18, 4-[4-(5,6-dihydrocyclopenta[c]pyrazol-2(4H)-ylmethyl)-2-({2-[3-methyl-6-(methylcarbamoyl)-1H-indol-1-yl]propanoyl}amino)phenyl]butanoic acid]: the IC50 at human EP4 receptor is 5.5 nM.

As for `COCCNC(=O)c1ccc2c(C3CC3)cn(C(C)C(=O)Nc3cc(Cn4cc(C)cn4)ccc3CCCC(=O)O)c2c1` (single isomer, unassigned) [Example 9-5(2), 4-{2-[(2-{3-cyclopropyl-6-[(2-methoxyethyl)carbamoyl]-1H-indol-1-yl}propanoyl)amino]-4-[(4-methyl-1H-pyrazol-1-yl)methyl]phenyl}butanoic acid], the IC50 on human EP4 receptor came out at 2.2 nM.
